In patent US11160798B2, “Neuroprotective CB2 receptor agonists” (THE CLEVELAND CLINIC FOUNDATION, priority 2012, dated 2021):
“Also recorded” adds a separate entry of the source.

Experiments:
[1] = test system: cognitive impairment induced by Aβ1-40; test: Morris water maze test in rats microinjected with Aβ1-40 fibrils; assay type: in vivo, rat
Protocol: Animals and treatment protocol. All animal procedures were approved by the Animal Care and Use Committee of Cleveland Clinic. Animals were housed the Institutional Biological Rodent Unit on a 12/12 h light/dark cycle with water and food pellets available ad libitum. Adult male Sprague-Dawley (Charles River, Wilmington, Mass.) rats weighing 200-250 g were used, and all experiments were performed during the light cycle.
Animals were divided into several groups ([…]). The Aβ1-40 group received bilateral intracerebral microinjection of Aβ1-40 fibrils once and saline intraperitoneally (i.p.) daily for 14 days. The Aβ1-40+MDA7 group received bilateral intracerebral microinjection of Aβ1-40 fibrils once and 15 mg/kg MDA7 i.p. daily for 14 days. Other cohorts received smaller doses of MDA7 (5 mg/kg or 1.5 mg/kg) i.p. daily for 14 days to determine the dose-response characteristics for MDA7. In other groups, AM630 (a CB2 antagonist) 5 mg/kg i.p. was administered daily for 14 days either alone (Aβ1-40+AM630 group) or 15 min prior to MDA7 (15 mg/kg i.p.) administration (Aβ1-40+MDA7+AM630 group) to rats injected with β1-40 fibrils. MDA7 group and control group received bilateral intracerebral microinjection of artificial cerebrospinal fluid (130 mM NaCl, 2.6 mM KCl. 4.3 mM MgCl2 and 1.8 mM CaCl2) once and 15 mg/kg MDA7 or saline i.p. daily for 14 days, respectively. Intraperitoneal administration of AM630, MDA7 or saline started on the same day after intracerebral microinjection of Aβ1-40. All drugs were prepared coded. Decoding was performed at the end of all experiments.
Microinjection of amyloid fibrils into the hippocampal CA1 area. Rats were anesthetized with sodium pentobarbital (45 mg/kg i.p.) and restrained in a stereotaxic apparatus. Aβ1-40 fibrils were formed as described previously. Chacon, et al., Mol Psychiatry 9(10), 953-61 (2004), Aβ1-40 fibrils (10 μg/3 μl) or 3 μl of artificial cerebrospinal fluid were injected stereotaxically and bilaterally into each hippocampus (coordinates; Bregma −3.5 mm anteroposterior, ±2.0 mm mediolateral, and −3.0 mm dorsoventral) using a 10 μl Hamilton syringe with a 27 G stainless steel needle at a rate of 0.5 μl/min. This experimental model has been used for studying AD. Ahmed, et al., Neuroscience 169(3), 1296-306 (2010).
Morris water maze test. A cohort of rats (n=10 per group) was tested 15 days after surgery as described by Chacon et al. (ibid). Testing was conducted in all groups at the same time of the day. The experimental apparatus consisted of a circular pool (120 cm in diameter, 45 cm high). An invisible platform (15 cm in diameter, 35 cm high) was placed 1.5 cm below the surface of the water. The water temperature was kept at 24-28° C. The pool was located in a test room, and many clues external to the maze were visible from the pool, which could be used by the rats for spatial orientation. The position of the cues was kept constant throughout the task. Each rat underwent four trials per day for five days. During each trial (memory acquisition), the rats were placed randomly at one of four fixed starting points and were allowed to swim for 120 s or until they escaped from the water by reaching the platform. The platform was located in the same position throughout the test in the middle of one quadrant. The start location was moved to a different quadrant in each trial so that no single start location was used in consecutive trials. In each training session, the latency to escape to the hidden platform was recorded. After the rats reached the platform, they were allowed to rest there for 20 seconds, and they then were removed from the pool. An inter-trial interval of at least 4 minutes was used to ensure that each rat's performance was not impaired by fatigue. After completing four trials, the rats were removed from the pool, dried and returned to their home cage. […]

rCB2 = biological target: T1, rCB2 (Rattus norvegicus, UniProt Q9QZN9); conditions: cited from earlier work
T1 sequence (Q9QZN9 1-360): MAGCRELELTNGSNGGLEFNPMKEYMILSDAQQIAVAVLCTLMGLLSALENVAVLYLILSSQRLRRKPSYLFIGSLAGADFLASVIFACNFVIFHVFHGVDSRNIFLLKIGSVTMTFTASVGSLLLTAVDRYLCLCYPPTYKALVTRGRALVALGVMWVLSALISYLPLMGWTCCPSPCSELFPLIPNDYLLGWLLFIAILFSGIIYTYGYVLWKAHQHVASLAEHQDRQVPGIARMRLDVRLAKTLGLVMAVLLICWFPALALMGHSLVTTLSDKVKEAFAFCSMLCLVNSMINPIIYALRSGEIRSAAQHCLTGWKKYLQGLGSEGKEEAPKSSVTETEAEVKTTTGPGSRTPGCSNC

Compound: CC1(Cc2ccccc2)COc2cc(C(=O)N3CCCCC3)ccc21 (stereo not drawn) [MDA7, 3-benzyl-3-methyl-2,3-dihydrobenzofuran-6-carboxylic acid-piperidine amide]
- escape latency / memory enhancement in the Morris water maze test ([1]; Aβ1-40 fibril-injected rats, 1.5 mg/kg i.p. daily for 14 days): did not result in any significant memory enhancement
- escape latency / memory enhancement in the Morris water maze test ([1]; Aβ1-40 fibril-injected rats, 5 mg/kg i.p. daily for 14 days): limited only to days 3 and 5
- escape latency in the Morris water maze test ([1]; Aβ1-40 fibril-injected rats, 15 mg/kg i.p. daily for 14 days, vs i.p. saline, days 3-5): significantly shorter escape latency
- probe trial, time spent in the target quadrant ([1]; Aβ1-40 fibril-injected rats, 15 mg/kg i.p. for 14 days, vs i.p. saline, day 6, 15 mg/kg): spent the longest time in the target quadrant; also recorded: significantly longer time in the target quadrant
- escape latency, treatment alone ([1]; rats microinjected with artificial cerebrospinal fluid, 15 mg/kg for 14 days vs saline i.p.): no significant difference
- EC50 (rCB2): 67 nM
